From ChEMBL document CHEMBL1127237, “Analogs of UK 14,304 as 2-adrenoceptor agonists. Twist and agent polarity as design elements” (Bioorg Med Chem Lett, 1994)

Legend:
[1] = Distribution coefficient between octanol and pH 7.2 phosphate buffer; format: physicochemical; details: for logD: octanol/phosphate buffer
[2] = molecular target: T1, Adrenergic receptor alpha-2 (Homo sapiens, UniProt P08913+P18825+P18089); assay: Binding affinity towards Alpha-2 adrenergic receptor in HT-29 cells; format: cell-based
T1 sequence (P08913 whole entry): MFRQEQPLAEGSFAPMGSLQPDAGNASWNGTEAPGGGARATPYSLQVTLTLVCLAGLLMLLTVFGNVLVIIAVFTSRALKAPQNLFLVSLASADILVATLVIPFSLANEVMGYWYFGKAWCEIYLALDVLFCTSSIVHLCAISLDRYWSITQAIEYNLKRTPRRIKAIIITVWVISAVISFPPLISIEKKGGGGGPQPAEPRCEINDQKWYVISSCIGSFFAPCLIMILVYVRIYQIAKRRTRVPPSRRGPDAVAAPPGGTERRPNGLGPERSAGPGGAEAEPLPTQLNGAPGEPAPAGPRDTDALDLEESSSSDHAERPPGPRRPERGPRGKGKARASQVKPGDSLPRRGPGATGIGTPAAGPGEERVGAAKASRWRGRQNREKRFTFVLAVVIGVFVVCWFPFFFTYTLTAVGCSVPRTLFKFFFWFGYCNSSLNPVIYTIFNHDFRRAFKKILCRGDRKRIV
T1 sequence (P18825 whole entry): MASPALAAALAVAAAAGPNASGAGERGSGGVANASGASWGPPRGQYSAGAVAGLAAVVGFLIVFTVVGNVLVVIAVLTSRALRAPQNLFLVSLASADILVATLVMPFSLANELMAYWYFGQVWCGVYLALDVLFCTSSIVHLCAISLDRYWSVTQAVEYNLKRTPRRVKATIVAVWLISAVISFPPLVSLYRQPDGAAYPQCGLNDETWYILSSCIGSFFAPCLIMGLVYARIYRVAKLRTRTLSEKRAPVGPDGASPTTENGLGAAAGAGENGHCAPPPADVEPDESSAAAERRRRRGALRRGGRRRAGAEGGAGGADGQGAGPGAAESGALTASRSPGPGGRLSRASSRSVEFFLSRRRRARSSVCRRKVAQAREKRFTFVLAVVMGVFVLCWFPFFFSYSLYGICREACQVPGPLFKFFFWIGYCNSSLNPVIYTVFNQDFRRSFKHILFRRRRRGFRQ
T1 sequence (P18089 whole entry): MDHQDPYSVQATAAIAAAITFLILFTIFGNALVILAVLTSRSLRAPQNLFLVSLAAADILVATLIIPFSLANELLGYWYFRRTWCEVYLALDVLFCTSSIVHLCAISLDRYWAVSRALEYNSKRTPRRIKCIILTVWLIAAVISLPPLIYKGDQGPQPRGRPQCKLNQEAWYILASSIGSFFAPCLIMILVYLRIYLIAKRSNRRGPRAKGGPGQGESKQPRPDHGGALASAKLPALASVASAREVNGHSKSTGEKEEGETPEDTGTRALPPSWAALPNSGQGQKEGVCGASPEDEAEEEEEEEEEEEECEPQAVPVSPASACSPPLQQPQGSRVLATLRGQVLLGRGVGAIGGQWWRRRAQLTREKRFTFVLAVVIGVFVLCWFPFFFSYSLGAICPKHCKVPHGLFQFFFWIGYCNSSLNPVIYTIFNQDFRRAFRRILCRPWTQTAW

[3] = molecular target: T2, Adrenergic receptor alpha-1 (Homo sapiens, UniProt P35348+P25100+P35368); assay: Binding affinity towards Alpha-1 adrenergic receptor in human brain
T2 sequence (P35348 whole entry): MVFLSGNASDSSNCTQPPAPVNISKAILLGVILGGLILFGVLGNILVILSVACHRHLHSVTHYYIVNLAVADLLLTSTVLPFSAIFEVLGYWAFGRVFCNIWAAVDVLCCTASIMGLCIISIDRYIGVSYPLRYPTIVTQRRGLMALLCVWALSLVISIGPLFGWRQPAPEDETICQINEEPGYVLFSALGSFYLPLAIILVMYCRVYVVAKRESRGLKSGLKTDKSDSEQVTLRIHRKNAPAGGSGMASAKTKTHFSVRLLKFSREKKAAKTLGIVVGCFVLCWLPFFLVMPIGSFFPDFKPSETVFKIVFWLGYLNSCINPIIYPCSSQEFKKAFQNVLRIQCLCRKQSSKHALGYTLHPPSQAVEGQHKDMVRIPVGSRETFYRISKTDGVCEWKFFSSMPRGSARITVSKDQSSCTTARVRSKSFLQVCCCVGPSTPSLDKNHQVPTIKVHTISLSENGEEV
T2 sequence (P25100 whole entry): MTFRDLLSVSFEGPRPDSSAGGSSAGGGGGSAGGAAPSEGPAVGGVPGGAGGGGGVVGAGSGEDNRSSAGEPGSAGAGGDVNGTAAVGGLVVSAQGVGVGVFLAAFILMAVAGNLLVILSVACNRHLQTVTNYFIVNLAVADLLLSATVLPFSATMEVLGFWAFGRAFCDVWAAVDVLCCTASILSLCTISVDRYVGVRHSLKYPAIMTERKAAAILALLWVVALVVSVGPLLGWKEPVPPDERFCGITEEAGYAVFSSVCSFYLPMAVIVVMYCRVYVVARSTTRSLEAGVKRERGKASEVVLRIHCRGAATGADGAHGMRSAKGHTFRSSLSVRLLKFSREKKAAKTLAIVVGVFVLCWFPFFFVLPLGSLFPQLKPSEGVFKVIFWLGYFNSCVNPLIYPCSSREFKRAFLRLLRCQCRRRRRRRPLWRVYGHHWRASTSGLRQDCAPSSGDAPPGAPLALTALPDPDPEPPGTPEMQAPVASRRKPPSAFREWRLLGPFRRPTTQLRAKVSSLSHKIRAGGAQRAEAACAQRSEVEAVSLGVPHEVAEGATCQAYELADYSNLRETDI
T2 sequence (P35368 whole entry): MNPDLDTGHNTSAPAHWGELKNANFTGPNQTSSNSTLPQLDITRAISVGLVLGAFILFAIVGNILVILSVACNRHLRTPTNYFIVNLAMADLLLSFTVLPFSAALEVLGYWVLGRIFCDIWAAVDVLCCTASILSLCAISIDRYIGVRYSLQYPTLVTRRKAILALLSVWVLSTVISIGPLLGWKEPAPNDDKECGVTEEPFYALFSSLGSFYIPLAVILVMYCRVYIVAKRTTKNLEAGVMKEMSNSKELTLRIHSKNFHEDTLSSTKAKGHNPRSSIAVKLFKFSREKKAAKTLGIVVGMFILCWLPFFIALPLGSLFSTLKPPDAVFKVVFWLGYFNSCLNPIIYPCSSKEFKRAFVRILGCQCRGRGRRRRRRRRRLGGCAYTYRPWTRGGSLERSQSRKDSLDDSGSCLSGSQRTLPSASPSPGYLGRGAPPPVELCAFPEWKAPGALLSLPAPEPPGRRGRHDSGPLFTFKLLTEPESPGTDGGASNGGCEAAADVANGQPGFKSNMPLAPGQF

Compound | logD [1] | Ki [2] [nM] | Ki [3] [nM] | Log DC ([1]; octanol/water)
Cc1c(NC2=NCCN2)ccc2nccnc12 | 0.16 | 1.3 | 1400 | –
c1cc2c(cc1NC1=NCCN1)NCCN2 | – | 46 | 5100 | –
Cc1c(NC2=NCCN2)ccc2c1NCCN2 | -2.08 | 6.8 | 8700 | –
Brc1c(NC2=NCCN2)ccc2c1NCCN2 | -1.74 | 6 | 1100 | –
Brc1c(NC2=NCCN2)ccc2nccnc12 [BRIMONIDINE] | – | – | – | 1.5
c1cnc2cc(NC3=NCCN3)ccc2n1 | – | 64 | 11000 | –
